The source made the active and inactive calls.
How the values were obtained:
Format in all cases: functional
Triticum aestivum [1] = experiment: Stimulation of germination of Triticum aestivum (wheat) at 0.1 mM after 5 days relative to untreated control
Allium cepa [2] = experiment: Stimulation of germination of Allium cepa (onion) at 0.1 mM after 5 days relative to untreated control
Triticum aestivum [3] = experiment: Inhibition of shoot length of Triticum aestivum (wheat) at 0.1 mM after 5 days relative to untreated control
Hordeum vulgare [4] = experiment: Inhibition of germination of Hordeum vulgare (barley) at 0.1 mM after 5 days relative to untreated control; conditions: 120 h
Lactuca sativa [5] = experiment: Inhibition of shoot length of Lactuca sativa cv. Roman (lettuce) at 0.1 mM after 5 days relative to untreated control; conditions: 120 h
Triticum aestivum [6] = experiment: Stimulation of shoot length of Triticum aestivum (wheat) at 0.1 mM after 5 days relative to untreated control
Lactuca sativa [7] = experiment: Stimulation of shoot length of Lactuca sativa cv. Nigra (lettuce) at 0.1 mM after 5 days relative to untreated control
Lactuca sativa [8] = experiment: Stimulation of shoot length of Lactuca sativa cv. Roman (lettuce) at 0.1 mM after 5 days relative to untreated control
Lactuca sativa [9] = experiment: Stimulation of root length of Lactuca sativa cv. Roman (lettuce) at 0.1 mM after 5 days relative to untreated control
Triticum aestivum [10] = experiment: Inhibition of germination of Triticum aestivum (wheat) at 0.1 mM after 5 days relative to untreated control
Hordeum vulgare [11] = experiment: Inhibition of shoot length of Hordeum vulgare (barley) at 0.1 mM after 5 days relative to untreated control
Lepidium sativum [12] = experiment: Inhibition of germination of Lepidium sativum at 0.1 mM after 5 days relative to untreated control
Solanum lycopersicum [13] = experiment: Inhibition of root length of Solanum lycopersicum (tomato) at 0.1 mM after 5 days relative to untreated control; conditions: 120 h
Lepidium sativum [14] = experiment: Inhibition of shoot length of Lepidium sativum at 0.1 mM after 5 days relative to untreated control
Lactuca sativa [15] = experiment: Inhibition of root length of Lactuca sativa cv. Roman (lettuce) at 0.1 mM after 5 days relative to untreated control
Solanum lycopersicum [16] = experiment: Stimulation of germination of Solanum lycopersicum (tomato) at 0.1 mM after 5 days relative to untreated control
Triticum aestivum [17] = experiment: Stimulation of root length of Triticum aestivum (wheat) at 0.1 mM after 5 days relative to untreated control
Hordeum vulgare [18] = experiment: Stimulation of root length of Hordeum vulgare (barley) at 0.1 mM after 5 days relative to untreated control
Solanum lycopersicum [19] = experiment: Inhibition of shoot length of Solanum lycopersicum (tomato) at 0.1 mM after 5 days relative to untreated control; conditions: 120 h
Allium cepa [20] = experiment: Stimulation of shoot length of Allium cepa (onion) at 0.1 mM after 5 days relative to untreated control
Allium cepa [21] = experiment: Inhibition of shoot length of Allium cepa (onion) at 0.1 mM after 5 days relative to untreated control; conditions: 120 h
Lactuca sativa [22] = experiment: Stimulation of root length of Lactuca sativa cv. Nigra (lettuce) at 0.1 mM after 5 days relative to untreated control
Allium cepa [23] = experiment: Inhibition of root length of Allium cepa (onion) at 0.1 mM after 5 days relative to untreated control; conditions: 120 h
Lepidium sativum [24] = experiment: Stimulation of root length of Lepidium sativum at 0.1 mM after 5 days relative to untreated control
Lactuca sativa [25] = experiment: Stimulation of germination of Lactuca sativa cv. Nigra (lettuce) at 0.1 mM after 5 days relative to untreated control
Lepidium sativum [26] = experiment: Stimulation of shoot length of Lepidium sativum at 0.1 mM after 5 days relative to untreated control
Solanum lycopersicum [27] = experiment: Inhibition of germination of Solanum lycopersicum (tomato) at 0.1 mM after 5 days relative to untreated control; conditions: 120 h
Solanum lycopersicum [28] = experiment: Stimulation of shoot length of Solanum lycopersicum (tomato) at 0.1 mM after 5 days relative to untreated control
Allium cepa [29] = experiment: Stimulation of root length of Allium cepa (onion) at 0.1 mM after 5 days relative to untreated control
Hordeum vulgare [30] = experiment: Stimulation of germination of Hordeum vulgare (barley) at 0.1 mM after 5 days relative to untreated control
Allium cepa [31] = experiment: Inhibition of germination of Allium cepa (onion) at 0.1 mM after 5 days relative to untreated control; conditions: 120 h
Solanum lycopersicum [32] = experiment: Stimulation of root length of Solanum lycopersicum (tomato) at 0.1 mM after 5 days relative to untreated control
Lactuca sativa [33] = experiment: Inhibition of shoot length of Lactuca sativa cv. Nigra (lettuce) at 0.1 mM after 5 days relative to untreated control
Triticum aestivum [34] = experiment: Inhibition of root length of Triticum aestivum (wheat) at 0.1 mM after 5 days relative to untreated control; conditions: 120 h
Hordeum vulgare [35] = experiment: Inhibition of root length of Hordeum vulgare (barley) at 0.1 mM after 5 days relative to untreated control; conditions: 120 h
Lactuca sativa [36] = experiment: Inhibition of root length of Lactuca sativa cv. Nigra (lettuce) at 0.1 mM after 5 days relative to untreated control
Lactuca sativa [37] = experiment: Inhibition of germination of Lactuca sativa cv. Nigra (lettuce) at 0.1 mM after 5 days relative to untreated control
Lepidium sativum [38] = experiment: Inhibition of root length of Lepidium sativum at 0.1 mM after 5 days relative to untreated control
Lepidium sativum [39] = experiment: Stimulation of germination of Lepidium sativum at 0.1 mM after 5 days relative to untreated control
Lactuca sativa [40] = experiment: Stimulation of germination of Lactuca sativa cv. Roman (lettuce) at 0.1 mM after 5 days relative to untreated control
Hordeum vulgare [41] = experiment: Stimulation of shoot length of Hordeum vulgare (barley) at 0.1 mM after 5 days relative to untreated control
Lactuca sativa [42] = experiment: Inhibition of germination of Lactuca sativa cv. Roman (lettuce) at 0.1 mM after 5 days relative to untreated control; conditions: 120 h

COC(=O)[C@@]1(C)CCC[C@]2(C)C3=CC(=O)O[C@H](C(C)C)C3=CC[C@@H]12
>40%: Activity (Solanum lycopersicum [32])
inactive: Activity (Triticum aestivum [1]) | inhibition (Triticum aestivum [3]) | Activity (Triticum aestivum [6]) | inhibition (Triticum aestivum [10]) | inhibition (Hordeum vulgare [11]) | inhibition (Lepidium sativum [12]) | Activity (Lactuca sativa [22]) | inhibition (Lactuca sativa [36]) | Activity (Lepidium sativum [39]) | Activity (Hordeum vulgare [41])
> 40%: inhibition at 100 µM (Solanum lycopersicum [13])
< 20%: inhibition at 100 µM (Lactuca sativa [5]) | inhibition at 100 µM (Lepidium sativum [14]; 120 h) | inhibition at 100 µM (Lactuca sativa [15]; 120 h) | inhibition at 100 µM (Solanum lycopersicum [19]) | inhibition at 100 µM (Solanum lycopersicum [27]) | inhibition at 100 µM (Lactuca sativa [33]; 120 h) | inhibition at 100 µM (Triticum aestivum [34]) | inhibition at 100 µM (Hordeum vulgare [35]) | inhibition at 100 µM (Lactuca sativa [37]; 120 h) | inhibition at 100 µM (Lactuca sativa [42])
<20%: Activity (Lactuca sativa [7]) | Activity (Lactuca sativa [8]) | Activity (Lactuca sativa [9]) | Activity (Solanum lycopersicum [16]) | Activity (Triticum aestivum [17]) | Activity (Hordeum vulgare [18]) | Activity (Lactuca sativa [25]) | Activity (Lepidium sativum [26]) | Activity (Solanum lycopersicum [28]) | Activity (Lactuca sativa [40])
20%: Activity (Allium cepa [2]) | inhibition at 100 µM (Hordeum vulgare [4]) | Activity (Allium cepa [20]) | inhibition at 100 µM (Allium cepa [21]) | inhibition at 100 µM (Allium cepa [23]) | Activity (Lepidium sativum [24]) | Activity (Allium cepa [29]) | Activity (Hordeum vulgare [30]) | inhibition at 100 µM (Allium cepa [31]) | inhibition at 100 µM (Lepidium sativum [38]; 120 h)

COC(=O)[C@@]1(C)CCC[C@]2(C)C3=CC(=O)OC[C@]34O[C@@H]4C[C@@H]12
<20%: Activity (Allium cepa [2]) | Activity (Lactuca sativa [8]) | Activity (Allium cepa [20]) | Activity (Allium cepa [29]) | Activity (Solanum lycopersicum [32]) | Activity (Lactuca sativa [40]) | Activity (Hordeum vulgare [41])
< 20%: inhibition at 100 µM (Lactuca sativa [5]) | inhibition at 100 µM (Hordeum vulgare [11]; 120 h) | inhibition at 100 µM (Solanum lycopersicum [13]) | inhibition at 100 µM (Allium cepa [21]) | inhibition at 100 µM (Allium cepa [23]) | inhibition at 100 µM (Allium cepa [31]) | inhibition at 100 µM (Lactuca sativa [42])
20%: inhibition at 100 µM (Hordeum vulgare [4]) | Activity (Solanum lycopersicum [16]) | Activity (Triticum aestivum [17]) | Activity (Hordeum vulgare [18]) | inhibition at 100 µM (Solanum lycopersicum [19]) | inhibition at 100 µM (Solanum lycopersicum [27]) | Activity (Solanum lycopersicum [28]) | Activity (Hordeum vulgare [30]) | inhibition at 100 µM (Triticum aestivum [34]) | inhibition at 100 µM (Hordeum vulgare [35])
inactive: Activity (Triticum aestivum [1]) | inhibition (Triticum aestivum [3]) | Activity (Triticum aestivum [6]) | Activity (Lactuca sativa [7]) | Activity (Lactuca sativa [9]) | inhibition (Triticum aestivum [10]) | inhibition (Lepidium sativum [12]) | inhibition (Lepidium sativum [14]) | inhibition (Lactuca sativa [15]) | Activity (Lactuca sativa [22]) | Activity (Lepidium sativum [24]) | Activity (Lactuca sativa [25]) | Activity (Lepidium sativum [26]) | inhibition (Lactuca sativa [33]) | inhibition (Lactuca sativa [36]) | inhibition (Lactuca sativa [37]) | inhibition (Lepidium sativum [38]) | Activity (Lepidium sativum [39])
